{"source": "patent US12029738B2", "about": "“Antiproliferative compounds and methods of use thereof” (Celgene Corporation, priority 2017, dated 2024)", "key": {"dopamine D2S receptor": {"target": "T1, dopamine D2S receptor (Homo sapiens, UniProt P14416)", "T1 construct": "host or cells: HEK-293 cells (membrane homogenates)", "T1 sequence (P14416 1-414 isoform P14416-2)": "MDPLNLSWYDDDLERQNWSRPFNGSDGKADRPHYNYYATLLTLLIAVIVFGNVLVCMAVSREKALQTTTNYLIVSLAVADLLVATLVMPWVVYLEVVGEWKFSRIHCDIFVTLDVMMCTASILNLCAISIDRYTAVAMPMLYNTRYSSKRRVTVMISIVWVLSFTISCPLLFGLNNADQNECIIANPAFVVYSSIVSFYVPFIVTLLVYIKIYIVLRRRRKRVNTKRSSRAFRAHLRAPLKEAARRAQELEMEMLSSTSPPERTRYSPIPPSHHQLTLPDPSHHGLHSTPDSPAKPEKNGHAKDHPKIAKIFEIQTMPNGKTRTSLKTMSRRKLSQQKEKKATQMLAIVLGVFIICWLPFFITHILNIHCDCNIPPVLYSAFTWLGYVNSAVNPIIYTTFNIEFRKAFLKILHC", "experiment": "Dopamine D2S receptor radioligand binding (HEK-293)", "details": "10 μM", "method": "(§1) α1 Adrenergic and Dopamine D2 Receptors. Methods: Binding and functional assays for α1 adrenergic and dopamine D2 receptors were performed by Eurofins Cerep according to their methods.\nDopamine D2 Receptor. Binding at 10 μM. The binding assay evaluated the affinity of test articles for the dopamine D2 receptor in transfected human embryonic kidney (HEK)-293 cells. For determining the binding in the D2S receptor assay, test article was incubated with 0.3 nM [^3H] methylspiperone or 1 nM [^3H] 7-hydroxy-2-N,N-dipropylaminotetralin (7-OH-DPAT). [3H] Methylspiperone at 0.3 nM also was used as control ligand in the D2L binding assay. Cell membrane homogenates were incubated in duplicate at room temperature for 60 minutes with ligand in the absence or presence of test articles at 10 μM. After the incubation period, samples were filtered through glass fiber filters, the filters dried and then counted for radioactivity using a scintillation counter. Results are expressed as mean percent inhibition of control radioligand binding.\nBinding IC50. To determine the binding IC50 in the D2 receptor assays, HEK-293 were tested as described above but with varying concentrations of test article. Compound A was tested at 0.01-30 μM in the D2S radioligand binding assay. […] Compound 1 was assayed at 0.03-100 μM in both the D2S and D2L assays, while Compound 2 was tested at 0.03-100 μM in the D2S assay and 0.01-100 μM in the D2L assays. The IC50 was defined as the concentration causing a half-maximum inhibition of control specific binding."}, "[1]": {"tested_on": "non-selective α1 adrenergic receptor", "experiment": "α1 adrenergic receptor radioligand binding ([3H]prazosin)", "details": "10 μM; rat cerebral cortex; 0.25 nM [3H]prazosin", "method": "as §1\nα1 Adrenergic Receptor. Binding at 10 μM. The binding assay evaluated the affinity of test article for the non-selective α1 adrenergic receptor in rat cerebral cortex. Membrane homogenates of cerebral cortex were incubated in duplicate for 60 minutes at room temperature with 0.25 nM [^3H]prazosin in the absence or presence of test articles at 10 μM. After the incubation period, samples were filtered through glass fiber filters, the filters dried and then counted for radioactivity using a scintillation counter. Results are expressed as mean percent inhibition of control radioligand binding.\nBinding IC50. […] Compound A was tested at 0.01-30 μM. […] Compound 1 and Compound 2, the S-enantiomer of Compound 1, were assayed at 0.03-100 μM. Radioactivity was measured as described above. The IC50 was defined as the concentration causing a half-maximum inhibition of control specific binding."}, "[2]": {"tested_on": "MM cell lines H929-1051, KMS11, KMS-12PE, L363, OPM-P10, RPMI8226", "experiment": "Combination with small molecule inhibitors, synergy (Cell Titer-Glo, 3 days)", "type": "cell-based, human", "details": "Highest Single Agent method, 6 MM cell lines", "method": "The effect of combining treatment with Compound 2 and small molecule inhibitors with various mechanisms was evaluated in a panel of MM cell lines. Thirteen small molecule inhibitors were selected for combination studies with Compound 2 based on their preclinical and/or activity against MM. The cell lines H929-1051, KMS11, KMS-12PE, L363, OPM-P10, and RPMI8226 were selected for this study to represent the different genetic clustering groups across MM cell lines. […] Combination agents were dosed in a 6 point dose-response curve (DRC) at a 1:3 dilution, Compound 2 was dosed in a 10 point DRC, also at a 1:3 dilution. The combination experiments were run twice, each time with replicate data on separate plates. Compounds were pre-spotted into the appropriate wells of 384-well plates using an acoustic dispenser. All MM cell lines were cultured in an incubator at 37° C. with 5% CO2 using the indicated cell culture media containing 1× Penicillin-Streptomycin. Cells were added to the compound containing 384-well plates using a Multidrop Combi Reagent Dispenser and allowed to incubate for 3 days at 37° C. with 5% CO2. After 3 days, cells were assessed for their level of ATP content via Cell Titer-Glo measured on a luminescence detector (PerkinElmer Envision).\nThe Highest Single Agent (HAS) method was used to detect synergy in the dose response curve data. Combinations were analyzed from a response surface perspective. A statistical framework (Van Der Borght, K., et al., BIGL: Biochemically Intuitive Generalized Loewe null model for prediction of the expected combined effect compatible with partial agonism and antagonism; Scientific Reports, 7 (1), 17935-1-17935-9 (2017)) was incorporated into the analysis on top of the HAS null model with two statistical tests: 1) Complete response surface differs from null model, 2) Single well differs from null model."}, "RPMI-8226": {"tested_on": "RPMI-8226", "experiment": "PBMC and MM cell treatment assay (single culture vs co-culture)", "type": "cell-based", "details": "Homo sapiens, RPMI-8226, RPMI-8226, read-out: Immune-mediated Cell Killing IC50"}, "OPM2": {"tested_on": "OPM2", "experiment": "PBMC and MM cell treatment assay (single culture vs co-culture)", "type": "cell-based", "details": "Homo sapiens, OPM-2, OPM2, read-out: Immune-mediated Cell Killing IC50", "method": "(§2) PBMC and MM Cell Treatment Assay Procedure. Ninety-six-well dishes were pre-coated with anti-CD3 antibody (OKT3, 3 μg/mL) and incubated at 4° C. overnight before the start of the experiment. Frozen PBMC donor cells were thawed at 37° C. for 2 minutes in RPMI medium with 10% FBS and cell counts and viability were measured on the Vi-CELL analyzer. Peripheral blood mononuclear cells were washed and diluted to 1×10^6 cells/mL and dispensed into the compound-treated plates in a total volume of 200 μL. Cells were incubated with compounds for 2 h before being transferred onto anti-CD3-coated plates and incubated for an additional 72 h. At the same time, MM cell lines (NCI-H929, H929-1051, OPM2, OPM2-P10) were diluted to a final concentration of 0.1×10^6 cells/mL and labeled with CellTrace CFSE according to manufacturer's instructions. Multiple myeloma cell lines were then dispensed into compound-treated plates at a total volume of 200 μL and incubated for 72 h. After 72 h, the PBMCs and MM cells were counted and transferred into a U-bottom 96-well plate at a final T:E ratio of 1:5. After 24 h coculture, specific target cell lysis by PBMC cells was measured using Annexin V-AF647 and 7-AAD according to manufacturer's instructions and samples were run on the Attune NxT Cytometer.\n(§3) Because preincubation of immune cells with Compound 2 enhanced the targeting and lysing of MM cells, the effect of preincubation of MM cells with Compound 2 on their susceptibility to immune-mediated killing was also explored (FIG. 16A, FIG. 16B, FIG. 16C, and FIG. 16D, Table 12). Four MM cell lines and anti-CD3 antibody-activated PBMCs were separately preincubated with Compound 2, lenalidomide, or pomalidomide for 72 h. When anti-CD3 antibody-activated PBMCs and MM lines were both pretreated with Compound 2, lenalidomide, or pomalidomide, followed by co-culture, the effects on the PBMC-induced MM cell lysis were enhanced both in the potency and magnitude of the killing response. […] For the pomalidomide-resistant OPM2-P10 cell line, Compound 2 treatment of the MM cells enhanced the immune-mediated killing by ˜3000-fold (Table 12)."}, "K562 cells": {"tested_on": "K562 cells", "experiment": "Coculture of compound-treated IL-2-activated PBMCs with K562 cells", "type": "cell-based, human", "details": "Homo sapiens, K562; IL-2-activated PBMCs treated 72 h; 4 h coculture; read-out: IC50 of compound-treated PBMCs for direct K562 cell killing", "method": "Coculture Experiments with Peripheral Blood Mononuclear Cells and K562 Cells. Methods: Human Peripheral Blood Mononuclear Cell (PBMC) Preparation: PBMCs isolated from healthy donors were cultured in RPMI 1640 medium with 10% FBS at a density of 1×10^6 cells/mL.\nCell Culture: K562 cells were kept in log phase, and cell density and viability were monitored by trypan blue exclusion using the Vi-CELL® XR cell viability analyzer (Beckman Coulter, Brea, CA).\nAssay Procedures: Freshly isolated human PBMCs were cultured with recombinant IL-2 at concentration of 20 units/mL for 72 h. Peripheral blood mononuclear cells were then spun down and re-suspended in fresh RPMI complete medium to 2×10^6 cells/mL. Cells were then treated with DMSO or compounds at the indicated concentrations and incubated for an additional 72 h. The PBMCs were then washed twice in fresh RPMI complete medium prior to coculture. K562 cells were re-suspended to a cell density of 1×10^6/mL and stained with 1 μM CellTrace CFSE according to manufacturer's instructions. The labeled K562 cells were then seeded into a 96-well round bottom plate at 1×10^5 cells/well. Peripheral blood mononuclear cells were then transferred into the same 96-well plate at a 1:15 ratio, in triplicate and incubated at 37° C. for 4 h. Specific target cell lysis by PBMC cells was measured using Annexin V-fluorescein isothiocyanate (FITC) and propidium iodide (PI) according to manufacturer's instructions and samples were run on the FACS Array scan. Non-labeled K562 cells, CellTrace CFSE-labeled K562 cells, and Annexin V-FITC- and PI labeled untreated K562 cells were included in each assay as controls."}, "OPM2-P10": {"tested_on": "OPM2-P10", "experiment": "PBMC and MM cell treatment assay (single culture vs co-culture)", "type": "cell-based, human", "details": "Homo sapiens, PBMC, read-out: Immune-mediated Cell Killing IC50", "method": "as §2, §3"}, "NCI-H929": {"tested_on": "NCI-H929", "experiment": "PBMC and MM cell treatment assay (single culture vs co-culture)", "type": "cell-based, human", "details": "Homo sapiens, NCI-H929, NCI-H929, read-out: Immune-mediated Cell Killing IC50", "method": "as §2, §3"}, "H929-1051": {"tested_on": "H929-1051", "experiment": "PBMC and MM cell treatment assay (single culture vs co-culture)", "type": "cell-based, human", "details": "Homo sapiens, PBMC, H929-1051, read-out: Immune-mediated Cell Killing IC50", "method": "as §2, §3"}}, "note": "pIC50: −log10 of the molar value. Like-named read-outs stand apart in the source and are kept apart here.", "data": [{"compound": "O=C1CCC(N2Cc3c(OCc4ccc(CN5CCN(c6ccccc6)CC5)cc4)cccc3C2=O)C(=O)N1", "note": "(racemic) [Ex. 5.229]", "values": [{"measurement": "Dopamine D2S % Inhibition (10 μM)", "setting": "dopamine D2S receptor", "value": 98.7, "unit": "%"}]}, {"compound": "O=C1CCC(N2Cc3c(OCc4ccc(CN5CCN(c6ccc(F)cc6)CC5)cc4)cccc3C2=O)C(=O)N1", "note": "(racemic) [Ex. 5.273]", "values": [{"measurement": "Adrenergic α1 (non-selective) % Inhibition (10 μM)", "setting": "[1]", "value": 100.3, "unit": "%"}, {"measurement": "Dopamine D2S % Inhibition (10 μM)", "setting": "dopamine D2S receptor", "value": 94.7, "unit": "%"}]}, {"compound": "O=C1CCC(N2C(=O)c3cccc(OCc4ccc(CN5CCN(c6ccc(F)cc6)CC5)cc4)c3C2=O)C(=O)N1", "note": "(racemic) [Ex. 5.289]", "values": [{"measurement": "Dopamine D2S % Inhibition (10 μM)", "setting": "dopamine D2S receptor", "value": 92.4, "unit": "%"}]}, {"compound": "O=C(CCCCCCNC(=O)c1cnc(N(c2ccccc2)c2ccccc2Cl)nc1)NO", "note": "[ACY241]", "values": [{"measurement": "synergistic activity in combination with Compound 2 (cell lines)", "setting": "[2]", "value": "synergistic in L363/OPM2-P10"}]}, {"compound": "CO[C@H]1/C=C/C[C@H](C)[C@@H](C)S(=O)(=O)NC(=O)c2ccc3c(c2)N(C[C@@H]2CC[C@H]21)C[C@@]1(CCCc2cc(Cl)ccc21)CO3", "note": "[AMG176]", "values": [{"measurement": "synergistic activity in combination with Compound 2 (cell lines)", "setting": "[2]", "value": "synergistic activity in three cell lines (KMS11, KMS12-PE, L363)"}]}, {"compound": "Cn1cc(-c2cc(S(C)(=O)=O)ccc2OCC2CC2)c2ccccc2c1=O", "note": "[Compound D, 4-[2-(cyclopropylmethoxy)-5-(methanesulfonyl)phenyl]-2-methylisoquinolin-1(2H)-one]", "values": [{"measurement": "synergistic activity in combination with Compound 2 (cell lines)", "setting": "[2]", "value": "synergistic activity in the MM cells"}]}, {"compound": "COc1ccc(-c2c(-c3ccc(C#N)c(F)c3)nc(N3CCC(N)CC3)n(C)c2=O)cc1F", "note": "[Compound E, 4-[2-(4-amino-piperidin-1-yl)-5-(3-fluoro-4-methoxy-phenyl)-1-methyl-6-oxo-1,6-dihydropyrimidin-4-yl]-2-fluoro-benzonitrile]", "values": [{"measurement": "synergistic activity in combination with Compound 2 (cell lines)", "setting": "[2]", "value": "synergistic in L363 and KMS12-PE cells"}]}, {"compound": "Nc1cccc2c1CN(C1CCC(=O)NC1=O)C2=O", "note": "(stereo not drawn) [Lenalidomide, lenalidomide]", "values": [{"measurement": "pIC50", "setting": "RPMI-8226; Co-culture with PBMCs", "value": 6.90}, {"measurement": "pIC50", "setting": "RPMI-8226; Single culture", "value": "< 5.00"}, {"measurement": "pIC50", "setting": "OPM2; Co-culture with PBMCs", "value": 5.76}, {"measurement": "pIC50", "setting": "OPM2; Single culture", "value": "< 5.00"}, {"measurement": "pIC50", "setting": "K562 cells", "value": 7.70}, {"measurement": "pIC50", "setting": "OPM2-P10; Co-culture with PBMCs", "value": 5.09}, {"measurement": "pIC50", "setting": "OPM2-P10; Single culture", "value": "< 5.00"}, {"measurement": "pIC50", "setting": "NCI-H929; Co-culture with PBMCs", "value": 6.50}, {"measurement": "pIC50", "setting": "NCI-H929; Single culture", "value": "< 5.00"}, {"measurement": "pIC50", "setting": "H929-1051; Co-culture with PBMCs", "value": 6.06}, {"measurement": "pIC50", "setting": "H929-1051; Single culture", "value": "< 5.00"}]}, {"compound": "Cc1sc2c(c1C)C(c1ccc(Cl)cc1)=N[C@@H](CC(=O)Nc1ccc(O)cc1)c1nnc(C)n1-2", "note": "[birabresib]", "values": [{"measurement": "synergistic activity in combination with Compound 2 (cell lines)", "setting": "[2]", "value": "synergistic activity in the MM cells"}]}, {"compound": "MIK665", "values": [{"measurement": "synergistic activity in combination with Compound 2 (cell lines)", "setting": "[2]", "value": "did not show significant synergy in the 6 MM cell lines tested"}]}]}
